The values that follow come from US8268874B2, “Anti-cancer compounds, synthesis thereof, and methods of using same” (University of Notre Dame du Lac, priority 2008, dated 2012).

For assay [1], the system named is human leukemia cell line HL-60. Nature of the assay: In vitro anti-cancer activity against HL-60 cells. The following applies: Table 1. The class given is cell-based. From the text: (§1) For additional details pertaining to the assay, see, for example, Shoemaker, R. H., The NCI60 Human Tumour Cell line Anticancer Drug Screen, Nature Reviews, 6: 813-823, 2006, the disclosure of which is hereby incorporated by reference in its entirety.
(§2) Briefly, the cell lines comprising the National Cancer Institute Anti-cancer Drug Screen panel were obtained and processed as described previously. After an initial acquisition, in vitro expansion was followed by cryopreservation of a large number of master stock samples, for serial rethawing at 20-passage intervals. The parental cells included the small cell lung carcinoma cell line UMCC-1, the human leukemia cell line HL-60, estrogen receptor-positive MCF7 and ZR-75B human breast carcinoma cells, and estrogen receptor-negative MDA-MB231 human breast carcinoma cells. The parental cells were grown in monolayers or in suspension in Eagle's minimum essential medium containing 10% fetal bovine serum, 2 mM L-glutamine, 100 units/ml penicillin, and 100 μg/ml streptomycin in 5% CO2 at 37° C.
(§3) The current version of COMPARE is configured to calculate pairwise correlations with the log10 of one of the specific National Cancer Institute cell line activity parameters GI50, TGI, or LC50. The GI50 is the National Cancer Institute designation for a time zero-corrected IC50 value and is defined as the concentration of an agent that causes a 50% growth inhibition. Thus, log10 (GI50 values) for a seed or probe compound is correlated with the corresponding data from each compound in a database.

Assay [2] concerns human breast cancer cell line MCF-7. Description: NCI anti-cancer drug screen, growth inhibition of MCF-7 cells. It is filed as cell-based.
Text: as §1, §2, §3

Assay [3] concerns vincristine-resistant leukemia cell line, HL-60 VCR, that overexpresses p-glycoprotein. Nature of the assay: In vitro anti-cancer activity against HL-60 VCR cells. The class given is cell-based, human. The following applies: Table 1, p-glycoprotein overexpressing.
Text: as §1, §2, §3

The subject of assay [4] is M. tuberculosis H37Rv. Description: In vitro anti-tuberculosis activity, standard GAST assay. It is filed as cell-based, Mycobacterium tuberculosis. The following applies: in words.
The test system of assay [5] is multiple colon cancer cell lines. Nature of the assay: NCI assay, multiple colon cancer cell lines (FIG. 3). The following applies: applied at nanomolar concentrations. It is filed as cell-based, human.
Text: FIG. 3 illustrates the potent anti-cancer activity of various compounds disclosed herein in the NCI assay using multiple colon cancer cell lines, in accordance with various embodiments.
as §1

Assay [6] deals with PC-3 (Prostate). Description: NCI anti-cancer drug screen, growth inhibition of PC-3 cells. The following applies: Homo sapiens; for IC50: Table 5. The class given is cell-based.
Text: as §1, §2, §3
Various analogs of the oxazole triazole scaffold were prepared and tested for their anti-cancer activity in various cellular assays (testing was done as described previously).

Assay [7] concerns RXF 393 (Renal). Description: NCI anti-cancer drug screen, growth inhibition of RXF 393 cells. The class given is cell-based. The note with it: Homo sapiens, Table 5.
Text: as §1, §2
(§4) The current version of COMPARE is configured to calculate pairwise correlations with the log10 of one of the specific National Cancer Institute cell line activity parameters GI50, TGI, or LC50. […]

Assay [8] has as its system multiple cell lines of leukemia. Description: NCI assay, multiple leukemia cell lines (FIG. 2). The class given is cell-based, human. The following applies: applied at nanomolar concentrations.
Text: FIG. 2 illustrates the potent anti-cancer activity of various compounds disclosed herein in the NCI assay using multiple leukemia cell lines, in accordance with various embodiments.
as §1

Assay [9] relates to SR (Leukemia). Nature of the assay: NCI anti-cancer drug screen, growth inhibition of SR cells. It is filed as cell-based. The note with it: Homo sapiens, Table 5.
Text: as §1, §2, §4

Assay [10] relates to CAKI-1 (Renal). Nature of the assay: NCI anti-cancer drug screen, growth inhibition of CAKI-1 cells. The class given is cell-based. The note with it: Homo sapiens, Table 5.
Text: as §1, §2, §4

The test system of assay [11] is cell cycle. Nature of the assay: Cell cycle arrest (FIG. 5). It is filed as cell-based. From the text:
FIG. 5 illustrates cell cycle arrest showing G2/M-phase arrest in cells treated with 1,2,3-triazole 9c (ND-6732), in accordance with various embodiments.
Without being bound by theory, it is believed that the anti-cancer activity of various disclosed compounds disclosed herein is due to antimitotic activity.

Where [12] appears, read: Homo sapiens, MCF7, Table 2, SAR truncation of aryl ether moiety, read-out: MCF7 IC50.
Setting [13] is: Homo sapiens, MCF7, Table 5, read-out: IC50 MCF-7 (Breast).
The mark [14] stands for this setting: MCF7, Table 1, human breast cancer cell line MCF-7, read-out: IC50 MCF-7.
The mark [15] stands for this setting: Homo sapiens, MCF7, Table 3, SAR truncation of aryl carboxamide moiety, read-out: MCF7 IC50.
Where [16] appears, read: Homo sapiens, MCF7, read-out: IC50 MCF-7 (Breast).

Read-outs that look alike come from different tables or passages of the source.

With `COc1cc2c(cc1O)CC[C@@H]1[C@@H]2CC[C@]2(C)[C@@H](O)CC[C@@H]12` [2-methoxyestradiol], the IC50 was found to be 9.15 µM in assay [1]; 1.3 µM in [2] (Table 1, human breast cancer cell line MCF-7, read-out: IC50 MCF-7); 48 µM in [3].

In the case of `O=C(OCc1ccccc1)[C@@H]1COC(c2ccccc2OCc2ccccc2)=N1` [Compound 2], the anti-tuberculosis activity entry in assay [4] is reported as “exhibited anti-tuberculosis activity with potency similar to that of Mycobactin S”.

For `COc1ccc(CNC(=O)c2coc(-c3cccc(Cl)c3)n2)cc1OC` [Compound 3], in assay [4], the anti-tuberculosis activity result is reported as “active against M. tuberculosis”.

Take `C#CCNC(=O)c1coc(-c2ccccc2)n1` [Compound 8a]: in [2] (setting [12]), the IC50 was above 20 µM.

On to `O=C(NCc1cn(Cc2ccccc2)nn1)c1coc(-c2ccccc2)n1` [Compound 9a], for which, in [2] (setting [12]), the IC50 is 4 µM.

Turning to `O=C(NCc1cn(Cc2cccc(Oc3ccccc3)c2)nn1)c1coc(-c2ccccc2)n1` [Compound 9c], the “growth inhibition of multiple cell lines of colon cancer” value in assay [5] is listed as at least 50%. The concentration for 50% growth inhibition (GI50) in assay [6] turned out to be 0.504 µM; in assay [2] (Homo sapiens, MCF7) it was 0.302 µM. For the same compound, the IC50 in [6] was 0.504 µM; in assay [1] it was 7.9 µM; in assay [7] it was 0.299 µM; in assay [2] (setting [12]), 0.5 µM; in assay [2] (setting [13]), 0.302 µM; in [2] (setting [14]) it was 0.5 µM. The IC50 in assay [9] is 0.484 µM; in assay [10], 0.392 µM; in assay [3] (Homo sapiens, HL60/VCR), 12.2 µM. In assay [8], the “growth inhibition of multiple cell lines of leukemia” value is given as at least 50%. Further, the cell cycle arrest entry in [11] is reported as “cell cycle arrest at the G2M phase of mitosis”.

As to `O=C(NCc1cn(Cc2cccc(Oc3ccccc3)c2)nn1)c1ccccn1` [Compound 14], the IC50 in assay [2] (setting [15]) was determined as 0.07 µM.

`O=C(NCc1cn(Cc2cccc(Oc3ccccc3)c2)nn1)c1cocn1` [Compound 15]: the IC50 in assay [2] (setting [15]) came out at 1 µM.

On to `O=C(NCc1cn(Cc2cccc(Oc3ccccc3)c2)nn1)c1ccccc1` [Compound 16], for which the IC50 in assay [2] (setting [15]) amounted to 0.2 µM.

Take `CC(=O)NCc1cn(Cc2cccc(Oc3ccccc3)c2)nn1` [Compound 17]: the IC50 in assay [2] (setting [15]) turned out to be 6 µM.

In the case of `COc1ccc(-c2nc(C(=O)Nc3cn(Cc4ccc(Oc5ccccc5)cc4)nn3)co2)cc1` [ND-007887], the IC50 came to 1.25 µM in [6] and 0.937 µM in assay [2] (setting [13]).

On to `COc1ccc(-c2nc(CNCc3cn(Cc4ccc(Oc5ccccc5)cc4)nn3)co2)cc1` [ND-008169], for which the values for the IC50 in assay [6] and in [2] (setting [13]) were 10 µM and 3 µM, respectively.

Take `CCCCCCCCn1cc(CNCc2coc(-c3ccc(OC)cc3)n2)nn1` [ND-008171]: the values for the IC50 in assay [6] and in assay [2] (setting [13]) were above 100 µM and 15 µM, respectively.

For the compound `COc1ccc(-c2ccc(CNCc3cn(Cc4ccc(Oc5ccccc5)cc4)nn3)s2)cc1` [ND-008174], the IC50 in assay [6] is 10 µM; in assay [2] (setting [13]) it was 3 µM.

Regarding `CC(C)(C)[Si](C)(C)Oc1cccc(Cn2cc(CNC(=O)c3coc(-c4ccc(Cl)cc4)n3)nn2)c1` [ND-008183], the IC50 in [6] was above 50 µM; in assay [2] (setting [16]) it was 13 µM.

On to `O=C(NCc1cn(Cc2cccc(Oc3ccccc3)c2)nn1)c1coc(-c2ccc(Cl)cc2)n1` [ND-008186], for which the IC50 in assay [6] came to 2.4 µM; in assay [2] (setting [13]), 4 µM.

Consider `Cc1ccc(Cn2cc(CNC(=O)c3coc(-c4ccc(C)cc4)n3)nn2)cc1` [ND-008465], for which the IC50 in assay [6] came out at 20 µM; in [2] (setting [13]) it was 8 µM.

For `Cc1ccc(-c2nc(C(=O)NCc3cn(Cc4cccc(Oc5ccccc5)c4)nn3)co2)cc1` [ND-008467], the figures for the IC50 in assay [6] and in assay [2] (setting [13]) were 1 µM and 0.3 µM, respectively.

`Cc1ccc(-c2nc(C(=O)NCc3cn(Cc4cccc(O[Si](C)(C)C(C)(C)C)c4)nn3)co2)cc1` [ND-008468]: the results for the IC50 in [6] and in assay [2] (setting [16]) were 20 µM and 15 µM, respectively.

`CCCCCCCCn1cc(CNC(=O)c2coc(-c3ccc(C)cc3)n2)nn1` [ND-008469]: the IC50 in assay [6] was above 20 µM; in [2] (setting [13]) it was 20 µM.

Turning to `Cc1ccc(-c2nc(C(=O)NCc3cn(C45CC6CC(CC(C6)C4)C5)nn3)co2)cc1` [ND-008470], the IC50 in [6] and in assay [2] (setting [13]) was above 20 µM each time.

On to `O=C(NCc1cn(C23CC4CC(CC(C4)C2)C3)nn1)c1coc(-c2ccc(Cl)cc2)n1` [ND-008471], for which the IC50 in [6] and in [2] (setting [13]) was above 20 µM each time.

On to `CC(=O)NCc1cn(Cc2cccc(Oc3ccccc3)c2)nn1` [ND-008492], for which the IC50 in assay [6] was determined as 17 µM; in assay [2] (setting [13]), 6 µM.

On to `OCc1cn(Cc2cccc(Oc3ccccc3)c2)nn1` [ND-008493], for which the IC50 in [6] and in assay [2] (setting [13]) was above 20 µM throughout.

On to `O=C(NCc1cn(Cc2cccc(Oc3ccccc3)c2)nn1)c1ccccn1` [ND-008504], for which the IC50 in assay [6] worked out at 0.3 µM; in assay [2] (setting [13]) it was 0.15 µM.

In the case of `O=C(NCc1cn(Cc2cccc(Oc3ccccc3)c2)nn1)c1cocn1` [ND-008505], the IC50 in assay [6] and in assay [2] (setting [13]) was 1 µM throughout.

For `O=C(NCc1cn(Cc2cccc(Oc3ccccc3)c2)nn1)c1ccccc1` [ND-008506], the IC50 in assay [6] came to 0.5 µM; in assay [2] (setting [13]) it was 0.2 µM.

Turning to `CC[C@]1(O)C[C@H]2CN(CCc3c([nH]c4ccccc34)[C@@](C(=O)OC)(c3cc4c(cc3OC)N(C=O)[C@H]3[C@@](O)(C(=O)OC)[C@H](OC(C)=O)[C@]5(CC)C=CCN6CC[C@]43[C@@H]65)C2)C1` [vincristine], the IC50 was 0.57 µM in [1]; 0.2 µM in [2] (setting [14]); above 100 µM in assay [3] (Homo sapiens, HL60/VCR).

Mycobactin S [reference compound]: the anti-tuberculosis activity entry in assay [4] is listed as “exhibits anti-tuberculosis activity”.
